≈ marks a conversion by molar mass, not a printed value.
These compounds were tested on K562 (assay: Cytotoxicity against human K562 cells). Details: read-out: LC50 (the source's name).
Format: functional

In order of falling CC50:
1. C=C(CC[C@@H](C)[C@H]1CC[C@@]2(C(=O)O)C3=C(CC[C@]12C)[C@@]1(C)CCC(O[C@@H]2OC[C@H](O)[C@H](O[C@@H]4OC[C@H](O)[C@H](O)[C@H]4O)[C@H]2O[C@@H]2O[C@H](CO)[C@@H](O)[C@H](O)[C@H]2NC(C)=O)C(C)(C)[C@@H]1CC3)C(C)C (some centres undefined) [ERYLOSIDE H]  24.8 µg/mL (≈ 26.4 µM)
2. C=C(CC[C@@H](C)[C@H]1CC[C@@]2(C(=O)O)C3=C(CC[C@]12C)[C@@]1(C)CCC(O[C@@H]2O[C@H](CO)[C@H](O)[C@H](O[C@@H]4OC[C@H](O)[C@H](O)[C@H]4O)[C@H]2O[C@@H]2O[C@H](CO)[C@@H](O)[C@H](O)[C@H]2NC(C)=O)C(C)(C)[C@@H]1CC3)C(C)C (some centres undefined) [ERYLOSIDE G]  22.1 µg/mL (≈ 22.8 µM)
3. C=C(CC[C@@H](C)[C@H]1CC[C@@]2(C(=O)O)C3=C(CC[C@]12C)[C@@]1(C)CCC(O[C@@H]2OC[C@H](O)[C@H](O[C@@H]4OC[C@H](O)[C@H](O)[C@H]4O)[C@H]2O[C@@H]2O[C@H](CO)[C@@H](O)[C@H](O)[C@H]2NC(C)=O)C(C)(C)[C@@H]1CC3)C(C)(C)C (some centres undefined) [ERYLOSIDE J]  21.8 µg/mL (≈ 22.9 µM)
4. C=C(CC[C@@H](C)[C@H]1CC[C@@]2(C(=O)O)C3=C(CC[C@]12C)[C@@]1(C)CCC(O[C@@H]2O[C@H](CO)[C@H](O)[C@H](O[C@@H]4OC[C@H](O)[C@H](O)[C@H]4O)[C@H]2O[C@@H]2O[C@H](CO)[C@@H](O)[C@H](O)[C@H]2NC(C)=O)C(C)(C)[C@@H]1CC3)C(C)(C)C (some centres undefined) [ERYLOSIDE I]  17.9 µg/mL (≈ 18.2 µM)
